Laboratory results from ChEMBL document CHEMBL6153037, “Developing dual-responsive quinolinium prodrugs of 8-hydroxyquinoline by harnessing the dual chelating sites” (Eur J Med Chem, 2025).
Active and inactive are the calls of the source. The calls are words filed in the database; no cut-off is given here.

Legend:
MDA-MB-231 [1] = experiment: Induction of apoptosis in human MDA-MB-231 cells assessed as early apoptotic cells at 0.8 uM incubated for 24 hrs by Annexin V-FITC/PI staining based flow cytometry (reference value: 7.39 %); type: functional
MDA-MB-231 [2] = experiment: Antitumor activity against human MDA-MB-231 cells xenografted in BALB/c nude mouse assessed as tumor size at 20 mg/kg, iv administered every two days for 21 days (reference value: 1940 mm3); type: functional; conditions: time 21 day
MCF-10A [3] = experiment: Induction of apoptosis in human MCF-10A cells assessed as late apoptotic cells at 1.2 uM incubated for 24 hrs by Annexin V-FITC/PI staining based flow cytometry (reference value: 3.13 %); type: toxicity, cell-based
MCF-10A [4] = experiment: Induction of apoptosis in human MCF-10A cells assessed as necrotic cells at 0.4 uM incubated for 24 hrs by Annexin V-FITC/PI staining based flow cytometry (reference value: 1.38 %); type: toxicity, cell-based
MDA-MB-231 [5] = experiment: Induction of apoptosis in human MDA-MB-231 cells assessed as viable cells at 1.2 uM incubated for 24 hrs by Annexin V-FITC/PI staining based flow cytometry (reference value: 86.2 %); type: functional; conditions: read-out: Activity
MCF-10A [6] = experiment: Induction of apoptosis in human MCF-10A cells assessed as necrotic cells at 0.8 uM incubated for 24 hrs by Annexin V-FITC/PI staining based flow cytometry (reference value: 1.38 %); type: toxicity, cell-based
[7] = Induction of apoptosis in human MCF-10A cells assessed as viable cells at 0.4 uM incubated for 24 hrs by Annexin V-FITC/PI staining based flow cytometry (reference value: 92.5 %); type: toxicity, cell-based; conditions: read-out: Activity
MDA-MB-231 [8] = experiment: Anti-migration activity in human MDA-MB-231 cells at 0.4 uM incubated for 48 hrs by wound healing assay (reference value: 65.2 %); type: functional
MCF-10A [9] = experiment: Induction of apoptosis in human MCF-10A cells assessed as early apoptotic cells at 0.4 uM incubated for 24 hrs by Annexin V-FITC/PI staining based flow cytometry (reference value: 2.96 %); type: toxicity, cell-based
MCF-10A [10] = experiment: Cytotoxicity against human MCF-10A cells assessed as increase in red fluorescence at 0.4 to 0.8 uM by Calcein AM/PI staining based analysis; type: toxicity, cell-based; conditions: dose 0.4-0.8 µM
MDA-MB-231 [11] = experiment: Antitumor activity against human MDA-MB-231 cells assessed as sphere-forming efficiency incubated for 6 hrs followed by medium replacement without compound measured after 6 days by microscopic analysis (reference value: 1.07 %); type: functional
OVCAR-3 = experiment: Cytotoxicity against CuCl2-treated human OVCAR-3 cells assessed as inhibition of cell viability incubated for 48 hrs by MTT assay; type: functional, cell-based; conditions: OVCAR-3, 48 h
MCF-10A [12] = experiment: Induction of apoptosis in human MCF-10A cells assessed as early apoptotic cells at 1.2 uM incubated for 24 hrs by Annexin V-FITC/PI staining based flow cytometry (reference value: 2.96 %); type: toxicity, cell-based
MCF-10A [13] = experiment: Inhibition of mitochondrial membrane potential in human MCF-10A cells assessed as increase in intracellular calcium level at 0.4 to 0.8 uM incubated for 24 hrs by Fluo-4 AM dye based analysis; type: toxicity, cell-based; conditions: dose 0.4-0.8 µM
MDA-MB-231 [14] = experiment: Induction of apoptosis in human MDA-MB-231 cells assessed as late apoptotic cells at 0.4 uM incubated for 24 hrs by Annexin V-FITC/PI staining based flow cytometry (reference value: 5.81 %); type: functional
MDA-MB-231 [15] = experiment: Anti-migration activity in human MDA-MB-231 cells at 0.4 uM incubated for 24 hrs by wound healing assay (reference value: 45.4 %); type: functional
MCF-10A [16] = experiment: Induction of apoptosis in human MCF-10A cells assessed as necrotic cells at 1.2 uM incubated for 24 hrs by Annexin V-FITC/PI staining based flow cytometry (reference value: 1.38 %); type: toxicity, cell-based
MDA-MB-231 [17] = experiment: Induction of apoptosis in human MDA-MB-231 cells assessed as late apoptotic cells at 0.8 uM incubated for 24 hrs by Annexin V-FITC/PI staining based flow cytometry (reference value: 5.81 %); type: functional
MDA-MB-231 [18] = experiment: Inhibition of mitochondrial membrane potential in human MDA-MB-231 cells assessed as decrease in ATP level at 0.4 to 0.8 uM incubated for 24 hrs by luminescence based analysis; type: functional, cell-based; conditions: dose 0.4-0.8 µM
MCF-10A [19] = experiment: Induction of apoptosis in human MCF-10A cells assessed as early apoptotic cells at 0.8 uM incubated for 24 hrs by Annexin V-FITC/PI staining based flow cytometry (reference value: 2.96 %); type: toxicity, cell-based
MDA-MB-231 [20] = experiment: Induction of apoptosis in human MDA-MB-231 cells assessed as necrotic cells at 1.2 uM incubated for 24 hrs by Annexin V-FITC/PI staining based flow cytometry (reference value: 0.59 %); type: functional
MDA-MB-231 [21] = experiment: Induction of apoptosis in human MDA-MB-231 cells assessed as early apoptotic cells at 1.2 uM incubated for 24 hrs by Annexin V-FITC/PI staining based flow cytometry (reference value: 7.39 %); type: functional
MDA-MB-231 [22] = experiment: Cytotoxicity against CuCl2-treated human MDA-MB-231 cells assessed as inhibition of cell viability incubated for 48 hrs by MTT assay; type: functional, cell-based; conditions: MDA-MB-231, 48 h
MDA-MB-231 [23] = experiment: Inhibition of mitochondrial membrane potential in human MDA-MB-231 cells assessed as increase in intracellular calcium level at 0.4 to 0.8 uM incubated for 24 hrs by Fluo-4 AM dye based analysis; type: functional, cell-based; conditions: dose 0.4-0.8 µM
MCF-10A [24] = experiment: Induction of apoptosis in human MCF-10A cells assessed as late apoptotic cells at 0.8 uM incubated for 24 hrs by Annexin V-FITC/PI staining based flow cytometry (reference value: 3.13 %); type: toxicity, cell-based
MDA-MB-231 [25] = experiment: Antitumor activity against human MDA-MB-231 cells assessed as reduction in sphere volume incubated for 6 hrs followed by medium replacement without compound measured after 6 days by microscopic analysis; type: functional, cell-based
[26] = Prodrug conversion in PBS at pH 7.4 containing H2O2 assessed as 4-hydroxybenzyl alcohol release by measuring retention time at 50 uM measured after 15 mins by HPLC analysis; type: ADME; conditions: buffer, pH 7.4, 0.25 h
[27] = Induction of apoptosis in human MCF-10A cells assessed as viable cells at 1.2 uM incubated for 24 hrs by Annexin V-FITC/PI staining based flow cytometry (reference value: 92.5 %); type: toxicity, cell-based; conditions: read-out: Activity
MDA-MB-231 [28] = experiment: Induction of apoptosis in human MDA-MB-231 cells assessed as late apoptotic cells at 1.2 uM incubated for 24 hrs by Annexin V-FITC/PI staining based flow cytometry (reference value: 5.81 %); type: functional
[29] = Induction of apoptosis in human MCF-10A cells assessed as viable cells at 0.8 uM incubated for 24 hrs by Annexin V-FITC/PI staining based flow cytometry (reference value: 92.5 %); type: toxicity, cell-based; conditions: read-out: Activity
MDA-MB-231 [30] = experiment: Antitumor activity against human MDA-MB-231 cells xenografted in BALB/c nude mouse assessed as tumor growth inhibition at 10 to 20 mg/kg, iv administered every two days for 21 days; type: functional, organism-based; conditions: dose 10-20 mg/kg, time 21.0 day
MDA-MB-231 [31] = experiment: Cytotoxicity against NAC-treated human MDA-MB-231 cells incubated for 48 hrs by MTT assay; type: functional, cell-based
MDA-MB-231 [32] = experiment: Cytotoxicity against human MDA-MB-231 cells assessed as increase in red fluorescence at 0.4 to 0.8 uM by Calcein AM/PI staining based analysis; type: functional, cell-based; conditions: dose 0.4-0.8 µM

## CC1(C)OB(c2ccc(C[n+]3cccc4cccc(O)c43)cc2)OC1(C)C.[Br-]
MDA-MB-231 [1]
  Activity: 40.3%
MDA-MB-231 [2]
  Activity: 710 mm3
MCF-10A [3]
  Activity: 3.73%
MCF-10A [4]
  Activity: 0.36%
MDA-MB-231 [5]
  viability at 1.2 µM: 6.61%
MCF-10A [6]
  Activity: 0.36%
[7]
  viability at 24 h, 0.4 µM: 94.9%
MDA-MB-231 [8]
  Activity: 34.6%
MCF-10A [9]
  Activity: 2%
MCF-10A [10]
  Activity: Non-toxic
MDA-MB-231 [11]
  Activity: 0.22%
OVCAR-3
  IC50: 6.63 µM
MCF-10A [12]
  Activity: 2.12%
MCF-10A [13]
  Activity: Non-toxic
MDA-MB-231 [14]
  Activity: 13.2%
MDA-MB-231 [15]
  Activity: 16.5%
MCF-10A [16]
  Activity: 0.84%
MDA-MB-231 [17]
  Activity: 27.9%
MDA-MB-231 [18]
  inhibition: Active
MCF-10A [19]
  Activity: 2.18%
MDA-MB-231 [20]
  Activity: 6.03%
MDA-MB-231 [21]
  Activity: 71%
MDA-MB-231 [22]
  IC50: 0.83 µM
MDA-MB-231 [23]
  inhibition: Active
MCF-10A [24]
  Activity: 3.77%
MDA-MB-231 [25]
  Activity: Active
[26]
  Retention_time: 10.2 min
[27]
  viability at 24 h, 1.2 µM: 93.3%
MDA-MB-231 [28]
  Activity: 16.4%
[29]
  viability at 24 h, 0.8 µM: 93.7%
MDA-MB-231 [30]
  inhibition: Active
MDA-MB-231 [31]
  Activity: inactive
MDA-MB-231 [32]
  Activity: Active
